For experiment [1], the system named is MA148 ovarian cancer cells. As to the kind of experiment: Synergy of doxorubicin and FAC, CCK-8 viability, Compusyn CI/DRI (Example 5, FIG. 5, Tables 3-4). Format: cell-based, Human. On the procedure: FIG. 5. […] (Chou et al., 2006, Pharmacol Rev 58:621-628).
Subsequently, they were treated with different concentrations of Doxorubicin in the presence or absence of FAC 200 uM. […] Five different combinations of FAC and Doxorubicin were used in this study. […] Values below the dotted line indicate synergy.

Experiment [2] deals with A2780 ovarian cancer cells. The experiment in a line: Synergy of carboplatin and FAC, CCK-8 IC50 isobologram (Example 3, FIG. 3). The settings on record: read-out: IC50 (50% cell viability); agent alone, 48-hour treatment, CCK-8, A2780.
Protocol: In these experiments, varying concentrations of the two reagents are added to tumor cells in an array format. Cytotoxicity was determined by CCK8 assay after 24 hours.
A2780 ovarian cancer cells were seeded into 96-well plates. […] Cell viability was determined by CCK-8 kit after 48-hour treatment with the drugs. […] IC50 values are shown as individual data points.
For another experiment, the system named is Burkitt's lymphoma cells. As to the kind of experiment: Lymphoma cell growth in vitro, FAC versus FC (FIG. 14). Format: cell-based. On the procedure: FIG. 14. […]. Burkitt's lymphoma cells were treated with either ferric ammonium citrate (FAC) or ferric citrate (FC). […]
Experiment [3] relates to human umbilical vein endothelial cells (HUVEC). The settings on record: 100 ng/ml VEGF-A. As for the experimental part:
Human umbilical vein endothelial cells (HUVECs; Neuromics, Edina, Minn.) and HUVECs immortalized with h-TERT (ATCC CRL-4053, ATCC, Manassas, Va.) were cultured in endothelial cell growth media EGM-2 (Lonza, Basel, Switzerland). Lewis Lung Carcinoma (LLC) cells (ATCC CRL-1642, ATCC, Manassas, Va.) were grown in RPMI 1640 medium supplemented with 10% FBS, 1% glutamine, 1% penicillin-streptomycin and 1% sodium pyruvate. Female C57BL/6 wild-type (WT) mice were used as recipients (bred at the University of Minnesota specific pathogen free environment animal facility). All animals were sex and aged matched (6-8 weeks). All experimental protocols were approved by the University of Minnesota Institutional Animal Care and Use Committee. VEGF-A165 was purchased from R & D Systems (Minneapolis, Minn.). GELTREX Low-growth factor basement membrane matrix (Thermo Fisher Scientific, Inc., Waltham Mass.) was used for in vitro tube formation assay.
HUVEC were plated in 0.2% gelatin coated 96-well plates and allowed to attach for 24 hours. Subsequently they were starved in EBM-2 with 2% serum overnight. […] Cell viability was determined by CCK-8 assay (Dojindo Molecular Technologies, Inc., Rockville, Md.). VEGF-A induced effect was calculated by subtracting negative control values from all experimental groups. Proliferation was then calculated as percentage of the positive control.

In experiment [4] the test system is Lewis Lung Carcinoma (LLC) MATRIGEL plugs, tumor blood vessels (CD31). On the procedure: FIG. 11. […] Tumor cells were injected into groups of mice subcutaneously in […] plugs. […] Histograms show mean levels of blood vessel length and branch points.
In another aspect, this disclosure describes methods of inhibiting angiogenesis in a subject. Generally, the methods involve co-administering cell-permeable iron and an anti-angiogenic chemotherapeutic agent. […] (FIG. 7).
One million LLC cells (in PBS) were mixed with […] (Corning, Inc., Corning, N.Y.) in a 3:1 ratio and injected subcutaneously into the dorsal flanks (bilateral sites) of 6-8 week old female C57BL/6 wild-type mice. Experimental […] plugs contained 200 μM FAC. Four days later, mice were treated with either saline (negative control) or 20 mg/kg FAC (in PBS) on alternate days for two weeks. After two weeks, mice were sacrificed, tumor plugs removed and photographed, a part of the […] plugs was snap-frozen, and another part of the […] plugs was fixed in 10% neutral formalin. Frozen tumor plugs (n=5 for saline and n=7 for FAC) were sectioned (15 μm), fixed with acetone at −20° C. for 10 minutes, rehydrated, and blocked in 1% BSA. Slides were then stained with PE-conjugated anti-mouse CD31 (1:100) overnight at 4° C., washed three times with PBS, stained with FITC-conjugated anti-alpha-SMA (1:500) for one hour at room temperature and counterstained with DAPI. Two sections per tumor plug were stained. Random areas (5-20) were imaged at 10× magnification using a Nikon AZ 100M Fluorescence Macro scope and at 20× magnification using a Leica DM5500 B microscope. CD31 vessel length and branching points (nodes) were quantified by morphometric analyses of fluorescent digital images using Reindeer Games plug-in functions for Adobe Photoshop, as previously described (Wild et al., 2000, Microvac Res 59(3):368-376). CD31 positive vessels co-staining with alpha- SMA were quantified similarly to quantitate mature vessels. Data in FIG. 11 show representative images of tumor sections stained with rat anti-mouse CD31-phycoerythrin conjugate.

In experiment [5] the test system is MDA-MB-231-luc triple negative breast cancer cell line. Particulars: 100 μM FAC alone without radiation, five days. On the procedure:
FIG. 12. […] Triple negative breast cancer cell line, MDA-MB-231-luc, was exposed to different doses of ionizing radiation (X-Ray) in the presence and absence of 100 μM FAC. Sets of cultures seeded at the same cell density were kept as a control for radiation-induced cell death.
500,000 highly metastatic human breast cancer cells (MDA-MB-231-luc, Caliper Life Sciences, PerkinElmer Inc., Hopkinton, Mass.) were seeded into six-well plates in RPMI-1640 medium (3.0 ml) supplemented with 10% fetal bovine serum and antibiotics. After four hours to allow cell attachment, sets of cultures were treated with 100 μM FAC. Equal volume of complete medium was added to control cultures. One of the plates was kept aside without any radiation. Other sets of cultures were exposed to ionizing radiation (X-ray) of varying doses. After radiation, cells were cultures for five days. Live cells were stained with Hoechest 33342 dye and photographed under UV light.

Experiment [6] concerns Burkitt's B-lymphoma cells. The settings on record: 14 days, 2 cells/well-50 cells/well. On the procedure:
FIG. 13. […] Burkitt's B-lymphoma cells were treated with FAC at different concentrations. Treated cells grown for 14 days at different cell density (2 cells/well-50 cells/well).

The subject of experiment [7] is MA148 ovarian cancer cells.
Protocol: CI, combination index. CI<1.0 indicates synergy. Compusyn program (ComboSyn, Inc., Paramus, N.J.) was used to calculate CI and generate isobologram.
In these experiments, varying concentrations of the two reagents are added to tumor cells in an array format. Cytotoxicity was determined by CCK8 assay after 24 hours. […] An antagonistic effect (competition) would result in hyperbolic (bell-shaped) curve above the dotted line (additive effect).
Cells were allowed to attach for 24 hours after which they were pretreated with FAC 200 μM for 24 hours. […] After 24 hours, CCK-8 (10 μl) was added to each well and one hour later, absorbance at 450 nm was measured. Viability was calculated as percentage of the cells grown in complete medium (FIG. 4). […] Isobologram was generated using Compusyn program (ComboSyn, Inc., Paramus, N.J.). Dotted line is the predicted additive effect between two compounds. Values below the dotted line indicate synergy.
For the next experiment, the system named is HUVECs. The settings on record: FAC 200 μM for 24 hours, complete medium, eight hours recording.
[8] abbreviates: 20 mg/kg FAC on alternate days for two weeks.

We go through four molecules from patent publication US20160375057A1, “THERAPEUTIC COMPOSITIONS AND METHODS INVOLVING CELL-PERMEABLE IRON” (priority 2015, published 2016).

Read-outs that look alike come from different tables or passages of the source.

Protocol for HUVECs: HUVECs were plated in 60 mm plates and allowed to grow and attach for 24 hours. Subsequently, one plate was treated with FAC 200 μM for 24 hours. Control and treated cells were trypsinized and 50,000 live cells were plated in 8 well (8W10E) electric cell substrate impedance sensing plate (ECIS, Applied BioPhysics, Inc., Troy, N.Y.). Cell attachment and spreading was confirmed by measuring electrical impedance. After reaching stable values of impedance in ohms, a clear wound of 250 micrometer was generated by applying elevated electrical pulse to the defined electrode. Wounded area is clear of cells and confirmed by a decrease in impedance. Cell movement into the wounded areas was recorded for eight hours at 15 minute intervals. Cell migration into the wounded area increases impedance and was continually recorded over a period of eight hours (FIG. 10). Error bars represent standard deviation (SD).

As to `COc1cccc2c1C(=O)c1c(O)c3c(c(O)c1C2=O)C[C@@](O)(C(=O)CO)C[C@@H]3O[C@H]1C[C@H](N)[C@H](O)[C@H](C)O1` [DOX, Doxorubicin, reference compound], the “Dose DOX (DOX alone for this Fa)” value in experiment [1] (Fa 0.88386) amounted to 47050.0; in experiment [1] (Fa 0.95196), 178095.
What is called IC50 is the concentration at which inhibition is half-maximal. Take `N.N.O=C([O-])C1(C(=O)[O-])CCC1.[Pt+2]` [carboplatin, reference compound]: the IC50 in experiment [2] came to 150 µM.
For ferric citrate [FC], the “inhibition of lymphoma cell growth” value in the experiment on Burkitt's lymphoma cells is “effective”.
Regarding ferric ammonium citrate [FAC], the “Dose FAC (FAC alone for this Fa)” value in experiment [1] (Fa 0.88386) is 2644.47; in [1] (Fa 0.95196), 6060.28; in experiment [7] (Fa 0.24288), 121.297; in experiment [7] (Fa 0.24359) it was 121.991; in experiment [7] (Fa 0.28253), 164.074; in experiment [7] (Fa 0.29392) it was 178.068. Further, the “Dose FAC (FAC alone for this Fa)” value in experiment [7] (Fa 0.35541) is reported as 269.444; in [7] (Fa 0.36087) it was 279.043; in experiment [7] (Fa 0.49929), 645.092; in experiment [7] (Fa 0.61254), 1272.12; in experiment [7] (Fa 0.66880), 1824.65; in [7] (Fa 0.87322), 11126.4. The “inhibition of VEGF-A-induced cell proliferation” value in [3] (50 μM FAC, 48 hours) is on record as “complete inhibition”. The “inhibition of VEGF-A-induced endothelial cell proliferation” value in [3] (200 μM FAC, 24 hours) is “completely inhibited”. For the same molecule, the total vessel length result in experiment [4] (setting [8]) is “inhibited”. Further, the vessel branches result in [4] (setting [8]) is “inhibited”. Besides, the “CD31 positive vessel density” value in experiment [4] (systemic injection of FAC, compared to mice receiving saline) is listed as “significantly reduced”. The cell viability result in [5] is reported as “significant decrease in cell viability”. In addition, in [6], the “colony formation (clonogenic growth)” value is reported as “completely inhibited”. In the experiment on Burkitt's lymphoma cells, the “inhibition of lymphoma cell growth” value is recorded as “effective”. Also, the “potency relative to ferric citrate at inhibiting lymphoma cell growth” value in the experiment on Burkitt's lymphoma cells is recorded as “more potent than ferric citrate (FC)”. Moreover, in the experiment on HUVECs, the “endothelial cell migration (electrical impedance, real time)” value was “inhibits”. The IC50 in experiment [2] was 200 µM.
